# What was measured:
# E. coli SK2 = test: MIC, micro broth dilution; format: cell-based, Escherichia coli; settings: alone
# Experimental: (§1) An assay was made using a minimum inhibitory concentration (MIC) and minimum bactericidal concentration (MBC) and minimum fungicidal concentration (MFC) determination. The MIC was determined by the micro broth dilution method in 96-well plates. Serial two-fold dilutions of tetrasodium EDTA (from 2% to 0.015%), ethanol (from 50% to 0.1%) and chlorhexidine HCl (from 100 μg/mL to 0.025 μg/mL) were prepared in MH broth with a final volume of 90 μL per well. A 10 μL containing 1×10^5 bacterial cells or 2×10^3 fungal cells were added to each well. The inoculated plates were covered with a lid, sealed with Parafilm, and incubated for 24 h at 37° C. with slight rocking on a tilting platform shaker. After incubation, the optical density at 600 nm (OD 600) of the cultures in each well was measured using an xMark™ Microplate Absorbance Spectrophotometer (Bio-Rad). […] MBCs and MFCs were determined by transferring 100 μL from each well with no apparent growth onto appropriate agar plates, followed by incubation for 24 h at 37° C.
# C. albicans ON47 [1] = test: MIC, micro broth dilution; format: cell-based, Candida albicans; settings: alone
# Experimental: as §1
# S. epidermidis SK9 [2] = test: Checkerboard titration, FICI; format: cell-based, Staphylococcus epidermidis; settings: for concentration in combination: EDTA + ethanol
# Experimental: (§2) A fourth composition and solution included tetrasodium EDTA with ethanol or chlorhexidine HCl. This fourth composition and solution were created using checkerboard titration methods using micro broth dilution in 96-well microtiter plates. The concentrations of antimicrobials used were based on previously determined MIC values. Briefly, 200 μL, of two-fold dilutions of tetrasodium EDTA and ethanol or chlorhexidine HCl were prepared in MH or MH II broth with standardized cell suspension. […] Microtiter plates were incubated at 37° C. for 24 h, and the results were analyzed. Each test was performed in duplicate and included a growth control without adding any antimicrobials.
# Candida albicans SK4b [3] = test: Checkerboard titration, FICI; format: cell-based; settings: for concentration in combination: EDTA + ethanol
# Experimental: as §2
# Escherichia coli ON29 = test: Checkerboard titration, FICI; format: cell-based; settings: for concentration in combination: EDTA + ethanol
# Experimental: as §2
# Proteus mirabilis ON153 = test: Checkerboard titration, FICI; format: cell-based; settings: for concentration in combination: EDTA + ethanol
# Experimental: as §2
# [4] = tested on: Pseudomonas aeruginosa SK1; test: Checkerboard titration, FICI; format: cell-based; settings: for concentration in combination: EDTA + ethanol
# Experimental: as §2
# Serratia marcescens SK2 [5] = test: Checkerboard titration, FICI; format: cell-based; settings: for concentration in combination: EDTA + ethanol
# Experimental: as §2
# [6] = tested on: Staphylococcus aureus ON89; test: Checkerboard titration, FICI; format: cell-based; settings: for concentration in combination: EDTA + ethanol
# Experimental: as §2
# [7] = tested on: Staphylococcus epidermidis ON170; test: Checkerboard titration, FICI; format: cell-based; settings: for concentration in combination: EDTA + ethanol
# Experimental: as §2
# [8] = tested on: Stenotrophomonas maltophilia ON17; test: Checkerboard titration, FICI; format: cell-based; settings: for concentration in combination: EDTA + ethanol
# Experimental: as §2
# S. epidermidis SK9 [9] = test: MBC/MFC determination; format: cell-based, Staphylococcus epidermidis; settings: alone
# Experimental: as §1
# S. epidermidis SK9 [10] = test: Checkerboard, FMCI; format: cell-based, Staphylococcus epidermidis; settings: for microbicidal concentration in combination: EDTA + ethanol
# Experimental: as §1, §2
# MRSA ON184 = test: Checkerboard, FMCI; format: cell-based, S. aureus; settings: for microbicidal concentration in combination: EDTA + ethanol
# Experimental: as §1, §2
# Candida albicans SK4b [11] = test: Checkerboard, FMCI; format: cell-based; settings: for microbicidal concentration in combination: EDTA + ethanol
# Experimental: as §1, §2
# [12] = tested on: Pseudomonas aeruginosa SK1; test: Checkerboard, FMCI; format: cell-based; settings: for microbicidal concentration in combination: EDTA + ethanol
# Experimental: as §1, §2
# Serratia marcescens SK2 [13] = test: Checkerboard, FMCI; format: cell-based; settings: for microbicidal concentration in combination: EDTA + ethanol
# Experimental: as §1, §2
# [14] = tested on: Staphylococcus aureus ON89; test: Checkerboard, FMCI; format: cell-based; settings: for microbicidal concentration in combination: EDTA + ethanol
# Experimental: as §1, §2
# [15] = tested on: Staphylococcus epidermidis ON170; test: Checkerboard, FMCI; format: cell-based; settings: for microbicidal concentration in combination: EDTA + ethanol
# Experimental: as §1, §2
# [16] = tested on: Stenotrophomonas maltophilia ON17; test: Checkerboard, FMCI; format: cell-based; settings: for microbicidal concentration in combination: EDTA + ethanol
# Experimental: as §1, §2
# C. albicans ON47 [17] = test: MBEC assay, 48-h biofilm, 24 h exposure; format: cell-based, Candida albicans
# Experimental: A biofilm cultivation cell composition was provided. This fifth composition was created using an MBEC Assay® biofilm inoculator, consisting of a polystyrene lid with 96 downward-protruding pegs and a corresponding base used to grow biofilms. A standardized inoculum was diluted in an appropriate biofilm growth medium to achieve a viable cell count of 1.5×10^6 CFU/mL of bacterial cells or 5×10^5 CFU/mL of fungal cells. Then, 150 μL of this inoculum was transferred into each appropriate well, and the peg lids were inserted into the microtiter plates. The plates were sealed with Parafilm and were incubated at optimum temperature for 48 h with slight rocking for bacteria and shaking at 200 rpm for fungal strains. After incubation, the peg lid was removed from the base and rinsed twice with sterile phosphate-buffered saline (PBS) for 2 min to remove loosely attached non-sessile cells. Before the antimicrobial challenge, the pegs in column 1 (n=8) were considered the biofilm growth control; these pegs were removed from the lids, placed into 200 μL of recovery medium, and analyzed for starting biofilm cell numbers as described below. The rinsed pegs were placed into new 96-well plates containing two-fold dilutions of antimicrobials such as tetrasodium EDTA (4%-0.0125%), ethanol (100%-0.2%), and chlorhexidine HCl (100 μg/mL-0.4 μg/mL) in 200 μL of suitable biofilm growth medium per well and incubated at optimum temperature for 24 h. After the antimicrobial challenge, the pegs were rinsed twice with sterile PBS for 2 min and placed into a new 96-well plate containing 200 μL of recovery medium. The recovery plates were sealed with Parafilm, and biofilm cells were dislodged from the pegs by sonication for 30 min with a Branson 3510 bath sonicator. The biofilm cells in the recovery medium were serially diluted, and a drop dilution assay was performed to enumerate the viable cells. MBEC values were determined as the minimum concentration of antimicrobials that yielded a viable cell count at or lower than the 125 CFU/mL detection limit.
# [18] = tested on: Staphylococcus epidermidis SK9; test: FBEC index, checkerboard on biofilms; format: cell-based; settings: for biofilm eradication concentration in combination (FBEC): EDTA + ethanol
# Experimental: (§3) In step (4), microtiter plates are incubated at 37° C. for 24 h. then (6), after incubation, the bacterial and fungal cells were dislodged from the pegs into the recovery medium described above.
# (§4) Three 10-μL aliquots, for a total of 30 μL from each well of recovery medium, were spotted on MH agar plates and incubated for 24 h at 37° C. […] The FBEC determination is a modification of the FICI.
# [19] = tested on: Pseudomonas aeruginosa SK1; test: FBEC index, checkerboard on biofilms; format: cell-based; settings: for biofilm eradication concentration in combination (FBEC): EDTA + ethanol
# Experimental: as §3, §4
# Candida albicans SK4b [20] = test: FBEC index, checkerboard on biofilms; format: cell-based; settings: for biofilm eradication concentration in combination (FBEC): EDTA + ethanol
# Experimental: as §3, §4
# C. albicans ON47 [21] = test: FBEC index, checkerboard on biofilms; format: cell-based, Candida albicans; settings: for biofilm eradication concentration in combination (FBEC): EDTA + ethanol
# Experimental: as §3, §4
compound,measurement,setting,value
"O=C([O-])CN(CCN(CC(=O)[O-])CC(=O)[O-])CC(=O)[O-].[Na+].[Na+].[Na+].[Na+] [EDTA, tetrasodium EDTA]",MIC,E. coli SK2,0.5 % w/v
same,MIC,C. albicans ON47 [1],1 % w/v
same,EDTA concentration in combination,S. epidermidis SK9 [2]; EDTA + chlorhexidine HCl,0.015 % w/v
same,concentration in combination,S. epidermidis SK9 [2],0.015 % w/v
same,EDTA concentration in combination,Candida albicans SK4b [3]; EDTA + chlorhexidine HCl,0.063 % w/v
same,concentration in combination,Candida albicans SK4b [3],0.25 % w/v
same,EDTA concentration in combination,Escherichia coli ON29; EDTA + chlorhexidine HCl,0.008 % w/v
same,concentration in combination,Escherichia coli ON29,0.25 % w/v
same,EDTA concentration in combination,Proteus mirabilis ON153; EDTA + chlorhexidine HCl,0.063 % w/v
same,concentration in combination,Proteus mirabilis ON153,0.5 % w/v
same,EDTA concentration in combination,[4]; EDTA + chlorhexidine HCl,0.5 % w/v
same,concentration in combination,[4],0.031 % w/v
same,EDTA concentration in combination,Serratia marcescens SK2 [5]; EDTA + chlorhexidine HCl,0.063 % w/v
same,concentration in combination,Serratia marcescens SK2 [5],0.5 % w/v
same,EDTA concentration in combination,[6]; EDTA + chlorhexidine HCl,0.008 % w/v
same,concentration in combination,[6],0.015 % w/v
same,EDTA concentration in combination,[7]; EDTA + chlorhexidine HCl,0.063 % w/v
same,concentration in combination,[7],0.015 % w/v
same,EDTA concentration in combination,[8]; EDTA + chlorhexidine HCl,0.015 % w/v
same,concentration in combination,[8],0.031 % w/v
same,MBC/MFC,S. epidermidis SK9 [9],0.5 % w/v
same,EDTA microbicidal concentration in combination,S. epidermidis SK9 [10]; EDTA + chlorhexidine HCl,0.008 % w/v
same,microbicidal concentration in combination,S. epidermidis SK9 [10],0.031 % w/v
same,EDTA microbicidal concentration in combination,MRSA ON184; EDTA + chlorhexidine HCl,0.125 % w/v
same,microbicidal concentration in combination,MRSA ON184,0.031 % w/v
same,EDTA microbicidal concentration in combination,Candida albicans SK4b [11]; EDTA + chlorhexidine HCl,0.125 % w/v
same,microbicidal concentration in combination,Candida albicans SK4b [11],0.25 % w/v
same,EDTA microbicidal concentration in combination,[12]; EDTA + chlorhexidine HCl,0.031 % w/v
same,microbicidal concentration in combination,[12],0.031 % w/v
same,EDTA microbicidal concentration in combination,Serratia marcescens SK2 [13]; EDTA + chlorhexidine HCl,0.125 % w/v
same,microbicidal concentration in combination,Serratia marcescens SK2 [13],0.25 % w/v
same,EDTA microbicidal concentration in combination,[14]; EDTA + chlorhexidine HCl,0.008 % w/v
same,microbicidal concentration in combination,[14],0.25 % w/v
same,EDTA microbicidal concentration in combination,[15]; EDTA + chlorhexidine HCl,0.25 % w/v
same,microbicidal concentration in combination,[15],0.031 % w/v
same,EDTA microbicidal concentration in combination,[16]; EDTA + chlorhexidine HCl,0.031 % w/v
same,microbicidal concentration in combination,[16],0.125 % w/v
same,MBEC,C. albicans ON47 [17],1 % w/v
same,EDTA biofilm eradication concentration in combination (FBEC),[18]; EDTA + chlorhexidine HCl,0.125 % w/v
same,biofilm eradication concentration in combination (FBEC),[18],0.031 % w/v
same,EDTA biofilm eradication concentration in combination (FBEC),[19]; EDTA + chlorhexidine HCl,0.25 % w/v
same,biofilm eradication concentration in combination (FBEC),[19],0.125 % w/v
same,EDTA biofilm eradication concentration in combination (FBEC),Candida albicans SK4b [20]; EDTA + chlorhexidine HCl,0.063 % w/v
same,biofilm eradication concentration in combination (FBEC),Candida albicans SK4b [20],0.125 % w/v
same,EDTA biofilm eradication concentration in combination (FBEC),C. albicans ON47 [21]; EDTA + chlorhexidine HCl,0.031 % w/v
same,biofilm eradication concentration in combination (FBEC),C. albicans ON47 [21],0.125 % w/v
"CCO [Ethanol, ethanol]",MIC,E. coli SK2,12.5 % w/v
same,MIC,C. albicans ON47 [1],6.25 % w/v
same,concentration in combination,S. epidermidis SK9 [2],0.4 % w/v
same,concentration in combination,Candida albicans SK4b [3],1.6 % w/v
same,concentration in combination,Escherichia coli ON29,3.125 % w/v
same,concentration in combination,Proteus mirabilis ON153,1.6 % w/v
same,concentration in combination,[4],3.125 % w/v
same,concentration in combination,Serratia marcescens SK2 [5],3.125 % w/v
same,concentration in combination,[6],0.4 % w/v
same,concentration in combination,[7],0.4 % w/v
same,concentration in combination,[8],0.4 % w/v
same,MBC/MFC,S. epidermidis SK9 [9],12.5 % w/v
same,microbicidal concentration in combination,S. epidermidis SK9 [10],3.125 % w/v
same,microbicidal concentration in combination,MRSA ON184,3.125 % w/v
same,microbicidal concentration in combination,Candida albicans SK4b [11],3.125 % w/v
same,microbicidal concentration in combination,[12],6.25 % w/v
same,microbicidal concentration in combination,Serratia marcescens SK2 [13],6.25 % w/v
same,microbicidal concentration in combination,[14],3.125 % w/v
same,microbicidal concentration in combination,[15],1.6 % w/v
same,microbicidal concentration in combination,[16],1.6 % w/v
same,MBEC,C. albicans ON47 [17],12.5 % w/v
same,biofilm eradication concentration in combination (FBEC),[18],1.6 % w/v
same,biofilm eradication concentration in combination (FBEC),[19],3.125 % w/v
same,biofilm eradication concentration in combination (FBEC),Candida albicans SK4b [20],1.6 % w/v
same,biofilm eradication concentration in combination (FBEC),C. albicans ON47 [21],1.6 % w/v

# Source: US20230263757A1, “DISINFECTING WIPE KIT FOR CENTRAL VENOUS ACCESS DEVICES” (SterileCare Inc., priority 2022, published 2023)
